Measured values from patent publication US20190328749A1, “FORMULATION OF LONG-ACTING LEVONORGESTREL BUTANOATE INJECTABLE DEPOT SUSPENSION” (Eastern Virginia Medical School, priority 2016, published 2019).
Where “and” joins values, the source holds several entries; their conditions need not be identical. Equal values may be shown once.

Key:
[1] = uniformity of LB particle size distribution and concentration after dispersion/mixing and homogenization; type: physicochemical; details: post LB dispersion in Part II & mixing with Part I
[2] = tested on: ovulation; details: women, single dose of 50 mg, micronized aqueous suspension, injected; cited from earlier work
[3] = tested on: ovulation; experiment: monkey study, time to return to ovulation / duration of action; type: in vivo, non-human primates
[4] = particle size distribution of micronized LB drug substance (dry milled, wet milled, spray dried); type: physicochemical
Description: FIG. 3 and FIG. 4 show typical particle size distributions and photomicrographs of LB drug substance prepared by dry milling. The dry milled LB powder was dispersed in 1% polysorbate 20 and three replicate measurements of the particle size distribution were made.
FIG. 5 and FIG. 6 show typical particle size distributions and photomicrographs of LB drug substance prepared by wet milling. After wet milling for 15 minutes, the LB suspension was sampled and three replicate measurements of the particle size distribution were made.
FIG. 7 and FIG. 8 show typical particle size distributions and photomicrographs of LB drug substance prepared by spray drying processes. The spray dried LB powder was dispersed in 0.5% polysorbate 80 and three replicate measurements of the particle size distribution were made.

[5] = dry milled LB powder dispersed in 1% polysorbate 20, replicate runs
[6] = spray dried LB powder dispersed in 0.5% polysorbate 80, replicate runs
[7] = wet milled 15 minutes, LB suspension, replicate runs

## C#C[C@]1(OC(=O)CCC)CC[C@H]2[C@@H]3CCC4=CC(=O)CC[C@@H]4[C@H]3CC[C@@]21CC [LB, Levonorgestrel Butanoate]
[1]; 15 minutes
  Assay Results - Concentration of LB, Average: 20.03 mg/mL
  Particle Size D50: 6.3 μm
  Particle Size VMD: 8.1 μm
  particle size D10: 1.4 μm
  particle size D90: 17.1 μm
[1]; 30 minutes
  Assay Results - Concentration of LB, Average: 20.00 mg/mL
  Particle Size D50: 6.3 μm
  Particle Size VMD: 8.1 μm
  particle size D10: 1.4 μm
  particle size D90: 17.2 μm
[2]
  suppression of ovulation, duration: 5-6 months
[3]
  time to return to ovulation: increases with increasing particle size of LB in the formulation and in many cases exceeding six months
[4]; [5]
  particle size D10: 5.3 μm and 5.1 μm and 4.3 μm
  particle size D90: 89.5 μm and 62.2 μm and 65.0 μm
  particle size Mean: 38.6 μm and 30.7 μm and 29.9 μm
  particle size Median: 23.1 μm and 22.7 μm and 18.6 μm
[4]; [6]
  particle size D10: 8.3 μm and 8.2 μm (2×)
  particle size D90: 24.7 μm and 24.8 μm (2×)
  particle size Median: 15.8 μm
[4]; [7]
  particle size D10: 5.4 μm (2×) and 4.3 μm
  particle size D90: 47.3 μm and 50.9 μm and 54.9 μm
  particle size Mean: 23.2 μm and 25.2 μm and 26.9 μm
  particle size Median: 18.0 μm and 18.4 μm and 21.0 μm
